Laboratory results: US20040028623A1, “Formulations for the removal of dental plaque, tartar and dental stains” (priority 2000, published 2004)
Where two headings read alike, the source gives them in different places.

Columns and labels:
[1] = aqueous solution of 2%, 30° C, without light, tooth rinsed and lightly brushed and solution changed every two days
Protocol: The in vitro evaluation of anti-tartar activity was carried out on an extracted tooth. The amount of tartar on said tooth was quantified before the test. The tooth was then immersed. Into an aqueous solution of 2% glutathlone and kept in a closed vessel without light at 30° C. Every two days said tooth was rinsed and lightly brushed and the solution was changed.

[2] = Protocol: (§1) In another clinical test five volunteers were chose, all male and smokers, characterized by a strong formation of dental calculus (tartar), especially in the zone of the lingual face of the lower incisors. Each volunteer underwent an application of 200 mg of pure glutathione in powder on the lingual face of the lower incisors by means of a single-tuft toothbrush with medium bristles, followed-by a tooth brushing for ten minutes with the same toothbrush. After a rinse with water the operation was repeated, always for ten minutes using a further 200 mg of glutathione.
[3] = remark: listed apart in the source
Protocol: as §1, with “especially IN” for “especially in”, “of 500” for “of 200”, “bristles, followed by” for “bristles, followed-by”, “further 500” for “further 200”

Question: Which results are given for `N[C@@H](CCC(=O)N[C@@H](CS)C(=O)NCC(=O)O)C(=O)O` [glutathione]?
Answer: time until removal of tartar was completed [1]: two to three weeks; time until removal of tartar was evident [1]: after only four days; reduction of dental calculus (tartar) ([2]; all five volunteers, zones where brushing had been carried out, 2 x 200 mg powder, 2 x ten minutes brushing): consistent reduction; residual dental calculus (tartar) ([2]; sub-gingival and interstitial zones where brushing had not been properly carried out, 2 x 200 mg): presence of residual dental calculus (tartar); removal of dental calculus (tartar) ([3]; all five volunteers, zones where brushing had been carried out, 2 x 500 mg powder, 2 x ten minutes brushing): complete removal; residual dental calculus (tartar) ([3]; sub-gingival and interstitial zones where brushing had not been properly carried out, 2 x 500 mg): presence of residual dental calculus (tartar)
